35 molecules from ChEMBL document CHEMBL1132395, “Inhibition of herpes proteases and antiviral activity of 2-substituted thieno[2,3-d]oxazinones” (Bioorg Med Chem Lett, 1999) can be followed below.

What is called IC50 is the concentration needed to halve the response being measured. A high value points to lower potency.

Test [1] relates to Human alphaherpesvirus 3. Nature of the test: Inactivation rate against Varicella Zoster Virus (VZV) was determined. The class given is functional.
Test [2] deals with Human alphaherpesvirus 2. In words: Cytotoxicity against herpes simplex virus type 2 (HSV-2) infected cells by pulse chase (PC) assay. The format is functional.
In test [3] the test system is Human alphaherpesvirus 2. Nature of the test: Inactivation rate against herpes simplex type 2 (HSV-2) was determined. The class given is functional.
The test system of test [4] is Human alphaherpesvirus 2. In words: Cytotoxicity in herpes simplex virus type 2 (HSV-2). The class given is functional.
Test [5] deals with MRC5. Nature of the test: Cytotoxicity by using MRC-5 cell culture assay (XTT). The format is functional. The following applies: Homo sapiens, read-out: TC50 (the source's name). In general terms: Formazan colour is commonly taken as a measure of viable cells.
The target in test [6] is T1, Capsid scaffolding protein (Human herpesvirus 2 (strain HG52) (HHV-2) (Human herpes simplex virus2), UniProt P89449).
T1 sequence (P89449 whole entry): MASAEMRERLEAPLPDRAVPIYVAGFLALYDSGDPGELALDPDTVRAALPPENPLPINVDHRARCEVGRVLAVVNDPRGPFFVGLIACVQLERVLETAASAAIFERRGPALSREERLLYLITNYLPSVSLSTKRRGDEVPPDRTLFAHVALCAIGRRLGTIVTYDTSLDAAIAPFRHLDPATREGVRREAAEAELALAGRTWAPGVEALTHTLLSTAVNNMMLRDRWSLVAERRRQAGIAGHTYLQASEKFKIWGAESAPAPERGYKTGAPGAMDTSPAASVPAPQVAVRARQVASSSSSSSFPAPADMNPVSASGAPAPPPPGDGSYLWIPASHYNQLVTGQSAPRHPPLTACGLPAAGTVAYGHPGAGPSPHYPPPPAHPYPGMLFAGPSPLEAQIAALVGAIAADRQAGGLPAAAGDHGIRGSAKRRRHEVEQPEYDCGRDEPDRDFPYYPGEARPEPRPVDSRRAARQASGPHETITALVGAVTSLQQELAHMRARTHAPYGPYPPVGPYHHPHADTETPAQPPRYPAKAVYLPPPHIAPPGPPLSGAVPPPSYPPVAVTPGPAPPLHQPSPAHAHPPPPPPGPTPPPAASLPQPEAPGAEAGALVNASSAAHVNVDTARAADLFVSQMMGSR
Nature of the test: Inhibitory activity against herpes simplex virus type 2 (HSV-2) protease was determined using quenched fluorescence assay.

Test [7] has as its system Human alphaherpesvirus 2. Nature of the test: Cytotoxicity in herpes simplex virus type 2 (HSV-2); NI= no inhibition. The format is functional, organism-based.
Test [8] concerns Human alphaherpesvirus 2. In words: Cytotoxicity against herpes simplex virus type 2 (HSV-2). The class given is functional.
Test [9] relates to Human alphaherpesvirus 2. Nature of the test: Inhibitory activity against herpes simplex virus type 2 (HSV-2) protease was determined using quenched fluorescence assay (IA=inactive up to 20 uM). The class given is functional, organism-based.
Test [10] deals with Varicella zoster virus protease (Varicella-zoster virus). Nature of the test: Inhibitory activity against Varicella Zoster Virus (VZV) protease was determined using quenched fluorescence assay (IA=inactive up to 20 uM).
For test [11], the system named is Cytomegalovirus. Nature of the test: Inhibitory activity against cytomegalovirus (CMV) protease was determined using quenched fluorescence assay (IA=inactive up to 20 uM). The class given is functional, organism-based.
For test [12], the system named is Cytomegalovirus. In words: Inhibitory activity against cytomegalovirus (CMV) herpes protease was determined using quenched fluorescence assay. The format is functional, organism-based. The following applies: Human betaherpesvirus 5.
Test [13] deals with Human alphaherpesvirus 2. In words: Inhibitory activity against herpes simplex virus type 2 (HSV-2) herpes protease was determined using quenched fluorescence assay. The class given is functional, organism-based.
Test [14] relates to Cytomegalovirus. In words: Inhibitory activity against cytomegalovirus (CMV) herpes was determined using quenched fluorescence assay. The following applies: Human betaherpesvirus 5. The class given is functional, organism-based.

Active and inactive are the calls of the source. The calls are words filed in the database; no cut-off is given here.

For the molecule `Cc1cc(/C=C/C(=O)N[C@@H](C)c2nc3scc(C)c3c(=O)o2)c(C)s1`, the “k obs / 1” value in [1] came out at 76000 M⁻¹ s⁻¹. In test [2], this molecule yielded a TC50 of 130000 nM. In addition, the “K obs / 1” value in test [3] was found to be 53000 M⁻¹ s⁻¹. This molecule also came in with a PC50 in test [4] of 12 µM. For the same molecule, in [5], the CC50 stood at 180000 nM. The molecule also had an IC50 in [6] of 190 nM.

Molecule `Cc1csc2nc([C@H](C)NC(=O)/C=C(\c3ccccc3)c3cccs3)oc(=O)c12` returned an IC50 in test [6] of 260 nM.

Turning to `CCOc1ccccc1/C=C/C(=O)N[C@@H](C)c1nc2scc(C)c2c(=O)o1`, the IC50 in [6] stood at 560 nM.

Molecule `Cc1csc2nc([C@H](C)NC(=O)/C=C/c3ccccc3Cl)oc(=O)c12` showed an IC50 in [6] of 610 nM.

`Cc1csc2nc([C@H](C)NC(=O)/C=C/c3cc(Br)cs3)oc(=O)c12`: in test [6], the IC50 worked out at 190 nM.

The molecule `COc1cc(/C=C/C(=O)N[C@@H](C)c2nc3scc(C)c3c(=O)o2)cc(OC)c1` gave an IC50 in test [6] of 350 nM.

Regarding `Cc1csc2nc([C@H](C)NC(=O)/C=C/c3cccc(Cl)c3)oc(=O)c12`, the IC50 in test [6] stood at 980 nM.

The molecule `Cc1csc2nc([C@H](C)NC(=O)/C=C/c3ccc([N+](=O)[O-])s3)oc(=O)c12` had an IC50 in [6] of 570 nM.

Regarding `COc1cccc(OC)c1/C=C/C(=O)N[C@@H](C)c1nc2scc(C)c2c(=O)o1`, half-maximal inhibition in test [6] (IC50) required 1300 nM.

On to `Cc1csc2nc([C@H](C)NC(=O)C=C(c3cccs3)c3cccs3)oc(=O)c12`, for which the PC50 entry in test [7] was “inactive”. The same molecule gave a TC50 in test [2] of 21000 nM. In [3], the “K obs / 1” value was 120000 M⁻¹ s⁻¹. Moreover, the CC50 in test [5] was 95000 nM. In test [6], this molecule gave an IC50 of 110 nM.

On to `Cc1csc2nc([C@H](C)NC(=O)/C=C/c3c(F)cccc3Cl)oc(=O)c12`, for which the IC50 in test [6] turned out to be 520 nM.

Molecule `Cc1ccc(/C=C/C(=O)N[C@@H](C)c2nc3scc(C)c3c(=O)o2)s1` showed a 50% inhibitory concentration (IC50) in test [6] of 650 nM.

Take `Cc1csc2nc([C@H](C)NC(=O)/C=C/c3ccccc3Br)oc(=O)c12`: in [6], the 50% inhibitory concentration (IC50) turned out to be 480 nM.

Turning to `Cc1csc2nc([C@H](C)NC(=O)/C=C/c3ccc(Cl)s3)oc(=O)c12`, the entries for the “K obs / 1” value in [1] and in [3] were 60000 M⁻¹ s⁻¹ and 58000 M⁻¹ s⁻¹, respectively. Moreover, in [2], the TC50 was >250000 nM. The molecule also had a PC50 in test [4] of 18 µM. Further, the CC50 in test [5] came to 130000 nM. Further, the midpoint of inhibition in test [6], the IC50, lay at 210 nM.

The molecule `Cc1csc2nc([C@H](C)NC(=O)/C=C/c3ccccn3)oc(=O)c12` yielded an IC50 in test [6] of 500 nM.

Consider `Cc1csc2nc([C@H](C)NC(=O)/C=C/c3ccc(N(C)C)cc3)oc(=O)c12`, for which the IC50 in test [6] is 570 nM.

As for `Cc1csc2nc([C@H](C)NC(=O)C=C(c3ccccc3)c3ccccc3)oc(=O)c12`, inhibition in [6] was half-maximal at 500 nM (IC50).

Turning to `Cc1csc2nc([C@H](C)NC(=O)/C=C/c3ccccc3)oc(=O)c12`, the “K obs / 1” value in [1] is 44000 M⁻¹ s⁻¹; in [3], 65000 M⁻¹ s⁻¹. The molecule also had a PC50 in test [8] of 7.5 µM. Moreover, in test [2], the TC50 is >250000 nM. Besides, the CC50 in [5] was found to be 56000 nM. Further, the IC50 in test [6] came to 300 nM.

Molecule `Cc1csc2nc([C@H](C)NC(=O)/C=C/c3ccc([N+](=O)[O-])cc3)oc(=O)c12` displayed an IC50 in test [6] of 940 nM.

Consider `Cc1csc2nc([C@H](C)NC(=O)/C=C/c3ccc(Br)o3)oc(=O)c12`, for which, in test [6], the IC50 is 490 nM.

In test [6], `Cc1csc2nc([C@H](C)NC(=O)/C=C/c3ccccc3[N+](=O)[O-])oc(=O)c12` registered an IC50 of 720 nM.

Take `Cc1csc2nc([C@H](C)NC(=O)/C=C/c3ccsc3Br)oc(=O)c12`: the IC50 in test [6] came to 200 nM.

In the case of `Cc1csc2nc([C@H](C)NC/C=C/c3ccccc3)oc(=O)c12`, the IC50 result in test [9], in test [10] and in [11] was “No inhibition” in each case.

Take `Cc1csc2nc([C@H](C)NC(=O)/C=C/c3ccnc4ccccc34)oc(=O)c12`: the “K obs / 1” value in [1] is 45000 M⁻¹ s⁻¹; in test [3], 76000 M⁻¹ s⁻¹. This molecule displayed an IC50 in test [6] of 250 nM.

Take `Cc1csc2nc([C@H](C)NC(=O)/C=C(\Sc3ccccc3)c3ccccc3)oc(=O)c12`: the IC50 in test [12] is 1900 nM; in test [13], 3100 nM.

On to `Cc1csc2nc([C@H](C)NC(=O)/C=C/c3ccc(C=O)cc3)oc(=O)c12`, for which, in [6], half-maximal inhibition (IC50) required 530 nM.

Take `Cc1ccccc1/C=C/C(=O)N[C@@H](C)c1nc2scc(C)c2c(=O)o1`: the IC50 in test [14] was found to be 20000 nM; in test [6], 1500 nM.

For `Cc1csc2nc([C@H](C)NC(=O)/C=C/c3ccc(O)cc3Cl)oc(=O)c12`, in test [7], the PC50 result is “inactive”. Besides, the IC50 in test [14] turned out to be 190 nM; in test [6] it was 230 nM. In test [2], this molecule showed a TC50 of 56000 nM. In addition, in [5], the CC50 came out at 100000 nM.

`Cc1csc2nc([C@H](C)NC(=O)/C=C/c3ccc(Br)s3)oc(=O)c12`: the figures for the “K obs / 1” value in test [1] and in test [3] were 63000 M⁻¹ s⁻¹ and 12000 M⁻¹ s⁻¹, respectively. The TC50 in test [2] is >250000 nM. For the same molecule, in [4], the PC50 came out at 8 µM. For the same molecule, in test [5], the CC50 is 83000 nM. The same molecule had an IC50 in test [6] of 270 nM.

For `Cc1csc2nc([C@H](C)NC(=O)/C=C/c3ccsc3)oc(=O)c12`, the IC50 in test [14] came to 380 nM; in test [6], 330 nM.

As for `Cc1csc2nc([C@H](C)NC(=O)/C=C/c3sccc3Br)oc(=O)c12`, the IC50 in [6] worked out at 250 nM.

Take `Cc1ccsc1/C=C/C(=O)N[C@@H](C)c1nc2scc(C)c2c(=O)o1`: the IC50 in test [6] amounted to 330 nM.

Molecule `Cc1csc2nc([C@H](C)NC(=O)/C=C/c3cccn3C)oc(=O)c12` registered an IC50 in [6] of 1000 nM.

On to `Cc1csc2nc([C@H](C)NC(=O)/C=C/c3c(Cl)cccc3Cl)oc(=O)c12`, for which the “K obs / 1” value in test [1] and in [3] was 33000 M⁻¹ s⁻¹ throughout. In test [6], this molecule returned an IC50 of 1970 nM.

As to `Cc1csc2nc([C@H](C)NC(=O)/C=C/c3c(F)cccc3F)oc(=O)c12`, the midpoint of inhibition in test [6], the IC50, lay at 630 nM.
